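Five compound concentrations were applied to cells in 96-well plates for 48 hours; endpoints were derived by simple linear interpolation of the resulting dose-response curve. The concentration for 50% growth inhibition is given as GI50.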 Active and inactive are the calls of the source. No stated cut-off is given here; in the data, active = GI50 up to about 1.1 µM and inactive = higher.
Experiments:
Assay in all cases: NCI anticancer screen, dose series, 48 h
SK-MEL-2 = tested on: SK-MEL-2
HT-29 = tested on: HT-29
HOP-62 = tested on: HOP-62
K562 = tested on: K562
CAKI-1 = tested on: CAKI-1
ACHN = tested on: ACHN
Malme-3M = tested on: Malme-3M
MOLT-4 = tested on: MOLT-4
LOX IMVI = tested on: LOX IMVI
NCI/ADR-RES = tested on: NCI/ADR-RES
786-0 = tested on: 786-0
OVCAR-8 = tested on: OVCAR-8
CCRF-CEM = tested on: CCRF-CEM
SK-MEL-28 = tested on: SK-MEL-28
MDA-N = tested on: MDA-N
SF-295 = tested on: SF-295
HCT-15 = tested on: HCT-15
A498 = tested on: A498
SN12C = tested on: SN12C
RXF 393 = tested on: RXF 393

Row | Compound | GI50 (SK-MEL-2) | GI50 (HT-29) | GI50 (HOP-62) | GI50 (K562) | GI50 (CAKI-1) | GI50 (ACHN) | GI50 (Malme-3M) | GI50 (MOLT-4) | GI50 (LOX IMVI) | GI50 (NCI/ADR-RES) | GI50 (786-0) | GI50 (OVCAR-8) | GI50 (CCRF-CEM) | GI50 (SK-MEL-28) | GI50 (MDA-N) | GI50 (SF-295) | GI50 (HCT-15) | GI50 (A498) | GI50 (SN12C) | GI50 (RXF 393)
1 | CCCCCCc1cc2cc(C(=O)Nc3ccccc3F)c(=N)oc2cc1O | 7.21 µM (inactive) | 24.7 µM (inactive) | 14.3 µM (inactive) | 3.7 µM (inactive) | 6.32 µM (inactive) | 6.08 µM (inactive) | 6.12 µM (inactive) | 3.21 µM (inactive) | 5.24 µM (inactive) | 2.64 µM (inactive) | 11.9 µM (inactive) | 2.89 µM (inactive) | 4.76 µM (inactive) | 7.69 µM (inactive) | 7.29 µM (inactive) | 12.1 µM (inactive) | 3.93 µM | 14.4 µM (inactive) |  | 
2 | CCOC(=O)c1c(NC(=O)c2ccc(OC)cc2)sc2c1CCCC2 | > 100 µM (inactive) | > 100 µM (inactive) | > 100 µM (inactive) | > 100 µM (inactive) | > 100 µM (inactive) | > 100 µM (inactive) |  | > 100 µM (inactive) |  | > 100 µM (inactive) | > 100 µM (inactive) | > 100 µM (inactive) | > 100 µM (inactive) | > 100 µM (inactive) | > 100 µM (inactive) | > 100 µM (inactive) |  | > 100 µM (inactive) | > 100 µM (inactive) | > 100 µM (inactive)
3 | COc1ccc(/C(=N/O)c2ccccc2-c2nc3ccccc3c(=O)n2-c2ccc(S(=O)(=O)Nc3ncccn3)cc2)cc1C |  | > 10 µM (inactive) | 16.1 µM (inactive) | 12.2 µM (inactive) | 21.1 µM (inactive) | 14.4 µM (inactive) | > 10 µM (inactive) | 12.2 µM (inactive) | > 10 µM (inactive) | 11.6 µM (inactive) | > 10 µM (inactive) | 18.4 µM (inactive) | 13.6 µM (inactive) | 14.9 µM (inactive) | 18.3 µM (inactive) | 12.9 µM (inactive) | 14 µM | 20.4 µM (inactive) | > 30.2 µM (inactive) | 11.1 µM (inactive)
4 | CC(=O)OCC1OC(SC2=N/C(=C\c3ccc(Br)s3)C(=O)N2CN2CCOCC2)C(OC(C)=O)C(OC(C)=O)C1OC(C)=O (stereo not given) | 0.383 µM (active) | 15.5 µM (inactive) | 23 µM (inactive) | 10.3 µM (inactive) | 17.9 µM (inactive) | 16.2 µM (inactive) | 16.5 µM (inactive) | 20 µM (inactive) | 12.9 µM (inactive) | 20.4 µM (inactive) | 16.7 µM (inactive) | 16.3 µM (inactive) |  | 15.7 µM (inactive) | 18 µM (inactive) | 19.5 µM (inactive) | 16.6 µM | 20.5 µM (inactive) | 13.6 µM (inactive) | 
5 | COc1ccc(C2SCC(=O)N2NC(=O)C(C)Oc2ccc(Cl)cc2Cl)cc1 (stereo not given) | 50.2 µM (inactive) | > 100 µM (inactive) | 20.6 µM (inactive) | 27 µM (inactive) | 21.8 µM (inactive) | 72.3 µM (inactive) |  | 28.3 µM (inactive) | 41.1 µM (inactive) | 56.6 µM (inactive) | 20.3 µM (inactive) | 31.3 µM (inactive) |  | 30.9 µM (inactive) | 83 µM (inactive) | 36.1 µM (inactive) | > 100 µM | 25 µM (inactive) | 41.7 µM (inactive) | 25.6 µM (inactive)
6 | O=Cc1cccc2c1Oc1c(cccc1C(=O)O)S2 | > 100 µM (inactive) | > 100 µM (inactive) | 49.9 µM (inactive) |  | 81.1 µM (inactive) | 34.3 µM (inactive) | 81.3 µM (inactive) | 17.3 µM (inactive) | 45.7 µM (inactive) | 36 µM (inactive) | 76.2 µM (inactive) | 53.7 µM (inactive) |  | > 100 µM (inactive) | 59.2 µM (inactive) | 52.7 µM (inactive) | 35.4 µM | > 100 µM (inactive) | 85.3 µM (inactive) | 
7 | [O-][Cl+3]([O-])([O-])[O-].[O-][Cl+3]([O-])([O-])[O-].c1ccn2c(N3CCOCC3)[n+]3c4ccccc4[n+]4c(N5CCOCC5)n5ccccc5c4c3c2c1 | > 100 µM (inactive) |  |  | > 100 µM (inactive) | > 100 µM (inactive) | > 100 µM (inactive) | 66.2 µM (inactive) | > 100 µM (inactive) | > 100 µM (inactive) | > 100 µM (inactive) | > 100 µM (inactive) | 41.2 µM (inactive) | > 100 µM (inactive) | > 100 µM (inactive) | 63.5 µM (inactive) | > 100 µM (inactive) | > 100 µM | > 100 µM (inactive) | 17.7 µM (inactive) | > 100 µM (inactive)
8 | O=C(OCc1ccccc1)N1CCNCCN(C(=O)OCc2ccccc2)CCNCC1 | 20.1 µM (inactive) | 17.7 µM (inactive) | 16.9 µM (inactive) | 25.5 µM (inactive) | 15 µM (inactive) | 50.4 µM (inactive) |  | 18 µM (inactive) | 13.2 µM (inactive) | 75.7 µM (inactive) | 18.3 µM (inactive) | 55.1 µM (inactive) | 36.5 µM (inactive) | 19.5 µM (inactive) | 15.6 µM (inactive) | 23.9 µM (inactive) | 32.5 µM | 27.5 µM (inactive) | 39.4 µM (inactive) | 52.8 µM (inactive)
9 | CC(=O)Oc1cc(OC(C)=O)c2c(c1C)CC[C@@H]1[C@@H]2CC[C@]2(C)[C@@H](OC(C)=O)CC[C@@H]12 |  | 15.8 µM (inactive) | 20.9 µM (inactive) | 22 µM (inactive) | 24.5 µM (inactive) | 17.5 µM (inactive) | 15.6 µM (inactive) | 11.9 µM (inactive) | 18.4 µM (inactive) | 22.5 µM (inactive) | 19.8 µM (inactive) | 20.2 µM (inactive) | 17.5 µM (inactive) | 19 µM (inactive) | 18.6 µM (inactive) | 23 µM (inactive) | 17.3 µM | 18.9 µM (inactive) | 17.5 µM (inactive) | 13.1 µM (inactive)
10 | Cc1cccc2c1CC1(Cc3ccccc3C1=O)C2=O (stereo not given) |  | > 100 µM (inactive) | 35.7 µM (inactive) | > 100 µM (inactive) |  | > 100 µM (inactive) | > 100 µM (inactive) | > 100 µM (inactive) | > 100 µM (inactive) | > 100 µM (inactive) | > 100 µM (inactive) | > 100 µM (inactive) | > 100 µM (inactive) | > 100 µM (inactive) | > 100 µM (inactive) | > 100 µM (inactive) | > 100 µM | > 100 µM (inactive) | > 100 µM (inactive) | > 100 µM (inactive)
11 | Cc1cc2c(cc1-c1cc3c(cc1C)C(C(C)C)=C(O)C(=O)/C3=C\Nc1ccccn1)/C(=C/Nc1ccccn1)C(=O)C(O)=C2C(C)C | 37.8 µM (inactive) |  |  | 31.8 µM (inactive) | 45.8 µM (inactive) | 43.3 µM (inactive) | 21.6 µM (inactive) | 25.7 µM (inactive) | 35.4 µM (inactive) | 27.9 µM (inactive) | 52.2 µM (inactive) | 29 µM (inactive) | 12.2 µM (inactive) | 58.2 µM (inactive) | 76.7 µM (inactive) | 49.9 µM (inactive) | 33.9 µM | > 100 µM (inactive) | 74.6 µM (inactive) | 45.5 µM (inactive)
12 | CC(=O)O[C@H]1CC[C@@]2(C)C(=CC[C@@H]3[C@@H]2CC[C@]2(C)c4c(C)nn(-c5ccccc5)c4C[C@@H]32)C1 |  | 11.5 µM (inactive) | 15.5 µM (inactive) | 2.65 µM (inactive) | 20.9 µM (inactive) | 19.5 µM (inactive) |  | 13.2 µM (inactive) | 12.3 µM (inactive) | 34.9 µM (inactive) | 13.6 µM (inactive) | 40.7 µM (inactive) | 11.2 µM (inactive) | 25.5 µM (inactive) | 23.1 µM (inactive) | 3.55 µM (inactive) | 37.1 µM | 24 µM (inactive) | 33.3 µM (inactive) | 5.42 µM (inactive)
13 | COc1ccc(/N=N/C(=N\c2ccccc2)c2ccc(N(CCC#N)CCC#N)cc2)cc1 | 30.3 µM (inactive) | 47.9 µM (inactive) | 89.5 µM (inactive) | 31.3 µM (inactive) | 80.7 µM (inactive) | > 100 µM (inactive) |  | 28.8 µM (inactive) |  | 95.3 µM (inactive) | 60.4 µM (inactive) | 45.3 µM (inactive) |  | > 100 µM (inactive) | 85.9 µM (inactive) | 31.2 µM (inactive) | 81.3 µM | 67.6 µM (inactive) | 88.9 µM (inactive) | 19.9 µM (inactive)
14 | CSC1=N/C(=C\c2ccc(Cl)cc2)C(=O)N1CN1CCCCC1 | 67.5 µM (inactive) | 35.6 µM (inactive) | 20.4 µM (inactive) | 53.7 µM (inactive) |  | 25.4 µM (inactive) | 25.5 µM (inactive) | 62.7 µM (inactive) | 44.7 µM (inactive) | 54.3 µM (inactive) | 42.8 µM (inactive) | 37.1 µM (inactive) | 26.5 µM (inactive) | > 100 µM (inactive) | 56.8 µM (inactive) | 35.5 µM (inactive) | 25.9 µM | 17.7 µM (inactive) | 67.5 µM (inactive) | 
15 | CCc1cc2c(c3c1CCC3=O)CC1(Cc3ccc(C)cc3C1)C2 (stereo not given) | 31.5 µM (inactive) | 18.1 µM (inactive) | > 100 µM (inactive) | 30.5 µM (inactive) |  | 27.3 µM (inactive) | 32.1 µM (inactive) | 11.5 µM (inactive) | 50.4 µM (inactive) | > 100 µM (inactive) | 96.8 µM (inactive) | > 100 µM (inactive) | 13.6 µM (inactive) |  | 38.1 µM (inactive) | 80.2 µM (inactive) | 46.3 µM | 27.4 µM (inactive) | 43.4 µM (inactive) | 34.8 µM (inactive)

— ChEMBL document CHEMBL1201862, “PubChem BioAssay data set” (2004)
